Test systems include COLO 205 colon; DU-145 prostate; HL-60(TB) leukemia; HT29 colon; IGROV1 ovarian; KM12 colon; NCI/ADR-RES ovarian; SF-268 CNS; SK-MEL-28 melanoma; SW-620 colon.
Common to all, as to assay: NCI anticancer screen, dose series, 48 h

We go through twelve compounds from PubChem BioAssay (NCI).

The structures appear in SMILES notation.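 Five concentrations, 48 hours, 96-well plates. At the GI50, growth is halved. TGI denotes the concentration required for complete inhibition of growth.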 Where only a bound is given, the exact number is not on record here.

In the case of `COc1ccc(C2CC(c3cccc(Nc4ccncc4)c3)=NN2c2ccccc2)cc1` (stereo unspecified), the GI50 was 2660 nM in the experiment on COLO 205 colon; 2570 nM with DU-145 prostate; 2000 nM in the experiment on HL-60(TB) leukemia; 2470 nM in the experiment with HT29 colon; 1810 nM in the experiment with IGROV1 ovarian; 1790 nM in the experiment on KM12 colon. Besides, the GI50 with NCI/ADR-RES ovarian was 1740 nM; in the experiment on SF-268 CNS, 2910 nM; in the experiment on SK-MEL-28 melanoma, 1690 nM; in the experiment on SW-620 colon, 1810 nM. For the same compound, the TGI is 6.14 µM with COLO 205 colon; 6.51 µM in the experiment with DU-145 prostate; 4.06 µM with HL-60(TB) leukemia; 6.87 µM in the experiment on HT29 colon; 3.51 µM with IGROV1 ovarian; 3.5 µM with KM12 colon. In addition, the TGI was determined as 3.46 µM in the experiment with NCI/ADR-RES ovarian, 9.98 µM with SF-268 CNS, 3.24 µM in the experiment on SK-MEL-28 melanoma and 3.43 µM with SW-620 colon.
For `COC(=O)[C@]1(c2cc3ccccc3[nH]2)CC2CNC1C1OC(C)(C)OC21` (stereo partly specified), the TGI with COLO 205 colon, in the experiment with DU-145 prostate, in the experiment with HL-60(TB) leukemia, in the experiment on HT29 colon, with IGROV1 ovarian and in the experiment on KM12 colon was greater than 100 µM in each case. In addition, the TGI with NCI/ADR-RES ovarian, with SF-268 CNS, in the experiment on SK-MEL-28 melanoma and with SW-620 colon was greater than 100 µM each time.
With `COc1ccc(Nc2nc(N)c(C(=O)c3ccco3)s2)cc1`, the TGI was greater than 100 µM with COLO 205 colon; greater than 100 µM with DU-145 prostate; 17.7 µM with HL-60(TB) leukemia; greater than 100 µM with HT29 colon; greater than 100 µM in the experiment with IGROV1 ovarian; greater than 100 µM with KM12 colon. The TGI with NCI/ADR-RES ovarian was greater than 94.8 µM; in the experiment with SF-268 CNS it was greater than 100 µM; with SK-MEL-28 melanoma it was greater than 100 µM; in the experiment on SW-620 colon it was greater than 100 µM.
Consider `CCOC(=O)NC(Nc1ccc(C(=O)O)cc1)(C(F)(F)F)C(F)(F)F`, for which the TGI in the experiment on COLO 205 colon, in the experiment with DU-145 prostate, in the experiment with HL-60(TB) leukemia, with HT29 colon, in the experiment on IGROV1 ovarian and with KM12 colon was greater than 100 µM in each case. Besides, the TGI in the experiment with NCI/ADR-RES ovarian, in the experiment on SF-268 CNS, with SK-MEL-28 melanoma and with SW-620 colon was greater than 100 µM throughout.
Consider `Cc1cc(C)n(C(C)(C(=O)Cc2ccccc2)n2nc(C)cc2C)n1`, for which the TGI in the experiment on COLO 205 colon, with DU-145 prostate, in the experiment with HL-60(TB) leukemia, with HT29 colon, in the experiment on IGROV1 ovarian and in the experiment on KM12 colon was greater than 100 µM throughout. Further, the TGI in the experiment with NCI/ADR-RES ovarian, in the experiment on SF-268 CNS, in the experiment on SK-MEL-28 melanoma and with SW-620 colon was greater than 100 µM each time.
With `CC(=O)CCN1CC2CN=NC2(C#N)C1` (stereo unspecified), the TGI is greater than 100 µM in the experiment with COLO 205 colon; greater than 100 µM in the experiment on DU-145 prostate; greater than 62.6 µM in the experiment on HL-60(TB) leukemia; greater than 100 µM in the experiment on HT29 colon; greater than 100 µM with IGROV1 ovarian; greater than 100 µM in the experiment on KM12 colon. In addition, the TGI in the experiment with NCI/ADR-RES ovarian is greater than 100 µM; in the experiment with SF-268 CNS, greater than 100 µM; with SK-MEL-28 melanoma, greater than 100 µM; in the experiment on SW-620 colon, greater than 55.6 µM.
Take `NCC1OC(OC2C(N)CC(N)C(O)C2OC2OC(CO)C(O)C2O)C(N)C(O)C1O` (stereo unspecified): the GI50 with COLO 205 colon is greater than 100000 nM. Also, the TGI in the experiment with COLO 205 colon, with DU-145 prostate, in the experiment on HL-60(TB) leukemia, in the experiment with HT29 colon, in the experiment with IGROV1 ovarian and with KM12 colon was greater than 100 µM throughout. The TGI in the experiment with NCI/ADR-RES ovarian, in the experiment with SF-268 CNS, in the experiment on SK-MEL-28 melanoma and in the experiment with SW-620 colon was greater than 100 µM in each case.
As to `CN(CC(=O)O)c1ncc2c(n1)-c1ccccc1CC2`, the TGI in the experiment with COLO 205 colon, with DU-145 prostate, with HL-60(TB) leukemia, in the experiment with HT29 colon, with IGROV1 ovarian and in the experiment with KM12 colon was greater than 100 µM in each case. Moreover, the TGI with NCI/ADR-RES ovarian, in the experiment on SF-268 CNS, in the experiment with SK-MEL-28 melanoma and with SW-620 colon was greater than 100 µM in each case.
Regarding `CCOC(=O)CSc1nc(-c2ccc(Cl)cc2)c(C#N)c(=O)[nH]1`, the TGI is greater than 100 µM in the experiment on COLO 205 colon; greater than 100 µM in the experiment with DU-145 prostate; 71.9 µM in the experiment with HL-60(TB) leukemia; greater than 100 µM in the experiment on HT29 colon; greater than 100 µM in the experiment with IGROV1 ovarian; greater than 100 µM in the experiment with KM12 colon. Also, the TGI in the experiment with NCI/ADR-RES ovarian, with SF-268 CNS, in the experiment on SK-MEL-28 melanoma and in the experiment on SW-620 colon was greater than 100 µM each time.
Regarding `CCOc1ccc(Nc2nc(N)nc(N)c2N=O)cc1`, the TGI is greater than 100 µM in the experiment on COLO 205 colon; greater than 100 µM in the experiment with DU-145 prostate; greater than 100 µM in the experiment on HL-60(TB) leukemia; greater than 100 µM in the experiment with HT29 colon; 33.4 µM with IGROV1 ovarian; greater than 100 µM with KM12 colon. Besides, the TGI with NCI/ADR-RES ovarian, in the experiment on SF-268 CNS, in the experiment with SK-MEL-28 melanoma and in the experiment with SW-620 colon was greater than 100 µM in each case.
As for `CN(C)c1ccc(/C=C2\N=C(c3ccccc3)N(c3nc4ccc(Sc5ccccc5)cc4[nH]3)C2=O)cc1`, the TGI in the experiment on COLO 205 colon is 45.9 µM; with DU-145 prostate, greater than 100 µM; in the experiment with HL-60(TB) leukemia it was 33.3 µM; in the experiment with HT29 colon, greater than 100 µM; in the experiment on IGROV1 ovarian it was greater than 100 µM; in the experiment with KM12 colon, greater than 100 µM. In addition, the TGI in the experiment with NCI/ADR-RES ovarian is 85.3 µM; in the experiment on SF-268 CNS, greater than 100 µM; in the experiment on SK-MEL-28 melanoma, greater than 100 µM; in the experiment on SW-620 colon, greater than 100 µM.
For the compound `CC1OC23CCCCC2C(C#N)(C#N)C1(C#N)C(=N)O3` (stereo unspecified), the TGI was 38.5 µM in the experiment on COLO 205 colon; 66.5 µM in the experiment on DU-145 prostate; 22.1 µM in the experiment with HL-60(TB) leukemia; greater than 100 µM in the experiment on HT29 colon; 41.9 µM in the experiment on IGROV1 ovarian; 61.1 µM with KM12 colon. Further, the TGI in the experiment with NCI/ADR-RES ovarian is greater than 100 µM; in the experiment on SF-268 CNS, 60.3 µM; in the experiment on SK-MEL-28 melanoma, 56 µM; with SW-620 colon, 98.3 µM.
